Measurements reported in US20220354957A1, “PEPTIDES TARGETING MACROPHAGES, AND CONJUGATES, COMPOSITIONS, AND USES THEREOF” (Twinpig Biolab, Inc., priority 2021, published 2022).
Where no end group is shown, it is not given here.

What was measured:
[1] = tested on: THP-1-derived M2 macrophages; assay: Cytotoxicity assay (CCK-8 cell viability); assay type: cell-based, human; conditions: 0.05-20 μM, 24 h
Protocol: (§1) THP-1 cells were differentiated into macrophages by 24 h incubation with 100 nM PMA and polarized in M2 macrophages by incubation with 20 ng/ml of IL-4 and 20 ng/ml of IL-13 for 72 h. Polarized cells were treated with increasing concentrations of TAMpep and fragments of TAMpep (0.05-20 μM) for 24 h. Cell viability was analyzed using the CCK-8 assay: CCK-8 reagent (Enzo Life Sciences) was added to each well; incubation was continued for 2 hours, and absorbance was measured at 450 nm with a microplate reader (Molecular Devices).

[2] = tested on: THP-1-derived M2 macrophages; assay: Affinity test of FITC-conjugated peptides by flow cytometry; assay type: cell-based, human
Protocol: THP-1 monocytes were differentiated into macrophages by 24 h incubation with 100 nM phorbol 12-myristate 13-acetate (PMA, Sigma) followed by 24 h incubation in RPMI medium (Invitrogen). Macrophages were polarized in M1 macrophages (M1) by incubation with 20 ng/ml of IFN-γ (Prospec) and 100 ng/ml of LPS (Sigma). Macrophage M2 polarization(M2) was obtained by incubation with 20 ng/ml of interleukin (IL) 4 (Prospec) and 20 ng/ml of interleukin 13 (Prospec). M2-like tumor-associated macrophages were polarized by incubation with 20% conditioned medium of PC3 cells.
THP-1 cells were differentiated into macrophages by a 24 h incubation with 100 nM PMA and polarized in M2 macrophages by incubation with 20 ng/ml of IL-4 and 20 ng/ml of IL-13 for 72 h. Polarized cells were treated with 50 nM TAMpep and fragments of TAMpep or Mpep and alanine library of Mpep conjugated with FITC for 1 h. To test change of macrophage population in melanoma tissue, the single cells were isolated from tumor tissue through a 40 μm nylon mesh strainer after dissociation by DNase I (1 U/mL) and collagenase D (1 mg/ml). Cells were detected on BD FACSCalibur and BD FACSCantoII instruments and analyzed by FlowJo software.

[3] = tested on: M2 macrophages; assay: Affinity by immunofluorescence microscopy; assay type: cell-based, human
[4] = tested on: TRAMP-C2 cells; assay: Mouse model of prostate cancer (subcutaneous TRAMP-C2); assay type: in vivo; conditions: TRAMP-C2 prostate cancer model
Excerpt: (§2) BALB/c and C57BL/6 (B6) wild-type mice were purchased from DBL. For the subcutaneous tumor model of melanoma and prostate cancer, CT26 (3×10^5 cells/mouse), B16F10 (1×10^6 cells/mouse) and TRAMP-C2 cells (1×10^6 cells/mouse) were mixed with Matrigel matrix (Corning) and inoculated subcutaneously into the right flank of the mice, and 4T1 (1×10^5 cells/mouse) cells mixed with Matrigel matrix and inoculated into a 4th mammary fat pad of the mice. TAMpepK, and MpepK peptides (200 nmol/kg) were injected intraperitoneally every 3 days, beginning at day 7 after tumor inoculation, and tumor volume was measured by electronic caliper. All tumor tissues were harvested after the end of the study and tumor weight was measured by an electronic balance.
Cells were harvested and lysed in PRO-PREP protein extraction solution (iNtRON, Bio Inc, Sungnam, Korea). Protein concentrations were measured with a Bradford Protein Assay Reagent kit (Bio-Rad, Richmond, CA, USA). Proteins were fractionated by 10% SDS-polyacrylamide gels electrophoresis (PAGE), and transferred onto polyvinylidene difluoride (PVDF) membranes. These were incubated with anti-arginase 1, anti-CD206, anti-caspase 3, anti-E-cadherin, anti-fibronectin, anti-PCNA, anti-TGF-β, anti-MMP9, and anti-β-actin Ab as primary antibodies. Goat anti-rabbit horseradish peroxidase-conjugated IgG or goat anti-mouse horseradish peroxidase-conjugated IgG (Abcam, Cambridge, Mass., USA) served as secondary antibodies. Protein bands were detected with a chemiluminescence reagent kit (SurModics).

[5] = tested on: murine melanoma cells (B16F10 cell line); assay: Mouse model of melanoma (subcutaneous B16F10); assay type: in vivo; conditions: B16F10 melanoma model, vs PBS group
Excerpt: as §2

[6] = Cytotoxicity assay (CCK-8 cell viability); assay type: cell-based, human; conditions: THP-1-derived M2 macrophages, CCK-8
Protocol: as §1

[7] = Cytotoxicity in human melanoma cells; assay type: cell-based; conditions: Sk-Mel-28 cells
[8] = tested on: mouse RBC; assay: Hemolytic activity assay; assay type: cell-based; conditions: 0.1-50 μM, 37° C., 1 h, read-out: hemolysis IC50
Protocol: Mouse blood samples were collected in tubes containing heparin as an anticoagulant and stored at 4 ° C. before use. Whole blood sample were centrifuged at 1,500×g for 5 min and the resulting plasma fraction was removed from the samples. The pellets were washed with an equal volume of saline, mixing by inversion. The centrifuging and washing steps were repeated 5 times. Red blood cells were counted by a hemocytometer and adjusted to […]. Red blood cells were then incubated at 37° C. for 1 h in 1% Triton X-100 (positive control), in PBS (blank), or with increasing concentrations of TAMpep and Mpep (0.1-50 μM) were evaluated. The samples were then centrifuged at 10,000 g for 5 min, the supernatant was separated from the pellet, and its absorbance measured at 570 nm. The relative optical density compared to that of the suspension treated with 1% Triton X-100 was defined as the percentage of hemolysis.

CC[C@H](C)[C@H](NC(=O)[C@H](CC(C)C)NC(=O)[C@H](C)NC(=O)[C@@H]1CCCN1C(=O)[C@H](CC(C)C)NC(=O)CNC(=O)[C@@H](NC(=O)[C@@H](NC(=O)[C@H](CC(C)C)NC(=O)[C@@H](NC(C)=O)C(C)C)[C@@H](C)O)[C@@H](C)O)C(=O)N[C@@H](CO)C(=O)N[C@@H](Cc1c[nH]c2ccccc12)C(=O)N[C@H](C(=O)N[C@@H](CCCCN)C(=O)N[C@@H](CCCNC(=N)N)C(=O)N[C@@H](CCCCN)C(=O)N[C@@H](CCCNC(=N)N)C(=O)N[C@@H](CCC(N)=O)C(=O)N[C@@H](CCC(N)=O)C(=O)O)[C@@H](C)CC [Mpep, Val-Leu-Thr-Thr-Gly-Leu-Pro-Ala-Leu-Ile-Ser-Trp-Ile-Lys-Arg-Lys-Arg-Gln-Gln]
cytotoxic effect in M2 macrophages (in words) [1]: low cytotoxicity

CC[C@H](C)[C@H](NC(=O)CN)C(=O)NCC(=O)N[C@@H](C)C(=O)N[C@H](C(=O)N[C@@H](CC(C)C)C(=O)N[C@@H](CCCCN)C(=O)N[C@H](C(=O)N[C@@H](CC(C)C)C(=O)N[C@H](C(=O)N[C@H](C(=O)NCC(=O)N[C@@H](CC(C)C)C(=O)N1CCC[C@H]1C(=O)N[C@@H](C)C(=O)N[C@@H](CC(C)C)C(=O)N[C@H](C(=O)N[C@@H](CO)C(=O)N[C@@H](Cc1c[nH]c2ccccc12)C(=O)N[C@H](C(=O)N[C@@H](CCCCN)C(=O)N[C@@H](CCCNC(=N)N)C(=O)N[C@@H](CCCCN)C(=O)N[C@@H](CCCNC(=N)N)C(=O)N[C@@H](CCC(N)=O)C(=O)N[C@@H](CCC(N)=O)C(N)=O)[C@@H](C)CC)[C@@H](C)CC)[C@@H](C)O)[C@@H](C)O)C(C)C)C(C)C [TAMpep, reference compound]
affinity in M2 macrophages compared to M0 and M1 macrophages ([2]; FITC-conjugated peptides, THP-1-derived M0, M1, M2, FACS): significantly more high affinity
affinity in M2 macrophages by immunofluorescence microscopy [3]: high affinity
body weight of mice [4]: did not significantly change

CC[C@H](C)[C@H](NC(=O)CNC(C)=O)C(=O)NCC(=O)N[C@@H](C)C(=O)N[C@H](C(=O)N[C@@H](CC(C)C)C(=O)N[C@@H](CCCCN)C(=O)N[C@H](C(=O)N[C@@H](CC(C)C)C(=O)N[C@H](C(=O)N[C@H](C(=O)NCC(=O)N[C@@H](CC(C)C)C(=O)N1CCC[C@H]1C(=O)N[C@@H](C)C(=O)N[C@@H](CC(C)C)C(=O)N[C@H](C(=O)N[C@@H](CO)C(=O)N[C@@H](Cc1c[nH]c2ccccc12)C(=O)N[C@H](C(=O)N[C@@H](CCCCN)C(=O)N[C@@H](CCCNC(=N)N)C(=O)N[C@@H](CCCCN)C(=O)N[C@@H](CCCNC(=N)N)C(=O)N[C@@H](CCC(N)=O)C(=O)N[C@@H](CCC(N)=O)C(=O)NCC(=O)NCC(=O)NCC(=O)NCC(=O)N[C@@H](CO)C(=O)N[C@H](CCCCN)C(=O)N[C@H](CC(C)C)C(=O)N[C@H](C)C(=O)N[C@H](CCCCN)C(=O)N[C@H](CC(C)C)C(=O)N[C@H](C)C(=O)N[C@H](CCCCN)C(=O)N[C@H](CCCCN)C(=O)N[C@H](CC(C)C)C(=O)N[C@H](C)C(=O)N[C@H](CCCCN)C(=O)N[C@H](CC(C)C)C(=O)N[C@H](C)C(=O)N[C@H](CCCCN)C(=O)O)[C@@H](C)CC)[C@@H](C)CC)[C@@H](C)O)[C@@H](C)O)C(C)C)C(C)C [TAMpepK]
body weight of mice [5]: not significantly changed
IC50 [6]: 1060 nM
IC50 [7]: 3580 nM
body weight of mice [4]: did not significantly change
IC50 [8]: 1120 nM

CC(=O)N[C@H](CCCCN)C(=O)N[C@H](CC(C)C)C(=O)N[C@H](C)C(=O)N[C@H](CCCCN)C(=O)N[C@H](CC(C)C)C(=O)N[C@H](C)C(=O)N[C@H](CCCCN)C(=O)N[C@H](CCCCN)C(=O)N[C@H](CC(C)C)C(=O)N[C@H](C)C(=O)N[C@H](CCCCN)C(=O)N[C@H](CC(C)C)C(=O)N[C@H](C)C(=O)N[C@H](CCCCN)C(=O)O [dKLA, d-Lys-d-Leu-d-Ala-d-Lys-d-Leu-d-Ala-d-Lys-d-Lys-d-Leu-d-Ala-d-Lys-d-Leu-d-Ala-d-Lys, reference compound]
body weight of mice [4]: did not significantly change

A18: the eleventh S (serine) of Mpep is substituted with alanine (SEQ ID NO:21) (Ac-VLTTGLPALIAWIKRKRQQ)
affinity of alanine-substituted Mpep peptides in M2 macrophages ([2]; alanine-substituted library of Mpep, FITC-conjugated, FACS): increased affinity
